Among the data in patent publication EP0955376A1, “ANTIBIOTIC TKR 459, PRODUCTION METHOD, AND MICROORGANISM” (Takara Shuzo Co, Ltd., priority 1996, dated 1998) are toxic signs, MIC and solubility values, retold here.

Converted amounts (≈) assume the structure as drawn. Read-outs that look alike come from different tables or passages of the source.

One data set relates to ICR mice. The data set is described as follows: Toxicity after intraperitoneal administration to mice. In kind it is in vivo. Conditions: dose 100 mg/kg.
The subject of another data set is Candida kefyr TIMM0301. The data set is described as follows: Antimicrobial spectrum, liquid medium dilution method. In kind it is cell-based. Conditions: Kluyveromyces marxianus, medium YNBG. As for the experimental part:
(§1) The TKR459 obtained was used to determine antimicrobial spectra against various microorganisms. The minimal inhibitory concentration (µg/ml) was measured by the liquid medium dilution method as the minimal concentration causing a substantially complete inhibition of micobial growth. The sub-minimal inhibitory concentration (µg/ml) was determined as the minimal concentration causing a partial inhibition of micobial growth and shown in the parentheses of Table 2. In the table, YNBG stands for a medium comprising 0.67% of yeast nitrogen base (manufactured by Difco) and 1.0% of glucose.

The test system of data set [1] is Cryptococcus neoformans TIMM0354. The description is as above. The settings on record: medium YNBG, minimal concentration causing substantially complete inhibition of growth, read-out: Minimal inhibitory concentration. In kind it is cell-based. As for the experimental part: as §1
For data set [2], the system named is Candida albicans TIMM0136. Described as above. In kind it is cell-based. Conditions: medium YNBG, minimal concentration causing substantially complete inhibition of growth, read-out: Minimal inhibitory concentration. As for the experimental part: as §1
Another data set can be described thus: Solubility in solvents. In kind it is physicochemical.

`CC1(CCC(=O)O)CCCCCCCCCCCCCC(O)C(O)C(O)C(N)C(O)O1` (stereo not drawn) [TKR459]: the toxic signs result in the data set on ICR mice is listed as “no toxic signs”. For the same compound, the MIC worked out at 0.78 µg/mL (≈ 1.74 µM) in the data set on Candida kefyr TIMM0301 (minimal concentration causing substantially complete inhibition of growth, read-out: Minimal inhibitory concentration); 0.39 µg/mL (≈ 0.871 µM) in the data set with Candida kefyr TIMM0301 (value in parentheses, minimal concentration causing partial inhibition of growth, read-out: sub-minimal inhibitory concentration); 3.13 µg/mL (≈ 6.99 µM) in data set [1]; 0.78 µg/mL (≈ 1.74 µM) in data set [2]. In addition, the solubility result in the data set “Solubility in solvents” (in chloroform) is on record as “sparingly soluble”; in the data set “Solubility in solvents” (in hexane) it was “sparingly soluble”; in “Solubility in solvents” (in methanol), “soluble”; in the data set “Solubility in solvents” (in water), “soluble”.
